From US12291519B2, “2-hydroxycycloalkane-1-carbamoyl” (Idorsia Pharmaceuticals Ltd, priority 2019, dated 2025)

How the values were obtained:
human Gal-3 (hGal-3) = human Gal-3 (hGal-3) (Homo sapiens (Human), UniProt P17931); test: Competitive binding assay: biotinylated hGal-3 binding to microplate-adsorbed asialofetuin (ASF); conditions: Activity on hGal-3; binding of biotinylated hGal-3 to ASF-coated plates; mean values
Method in brief: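 Serially diluted compounds competed with biotinylated human Gal-3 for binding to plate-adsorbed asialofetuin over 3 h at 4 °C. Bound Gal-3 was detected with streptavidin-peroxidase (80 ng/mL, 1 h, 4 °C) and ABTS substrate. IC50 values are means of several measurements.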

human Gal-1 (hGal-1) = test: Competitive binding assay: biotinylated hGal-1 binding to microplate-adsorbed asialofetuin (ASF); conditions: Activity on hGal-1; binding of biotinylated hGal-1 to ASF-coated plates; mean values
Method in brief: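 Inhibition measured as loss of hGal-1 (biotinylated, 300–1000 ng/mL, wild type or Cys→Ser mutant) binding to adsorbed asialofetuin over 3 h at 4 °C. Bound lectin detected with streptavidin-HRP and ABTS (410 nm, 30–45 min); IC50 values averaged across repeat measurements.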

Chain of human Gal-3 (hGal-3) (P17931 whole entry): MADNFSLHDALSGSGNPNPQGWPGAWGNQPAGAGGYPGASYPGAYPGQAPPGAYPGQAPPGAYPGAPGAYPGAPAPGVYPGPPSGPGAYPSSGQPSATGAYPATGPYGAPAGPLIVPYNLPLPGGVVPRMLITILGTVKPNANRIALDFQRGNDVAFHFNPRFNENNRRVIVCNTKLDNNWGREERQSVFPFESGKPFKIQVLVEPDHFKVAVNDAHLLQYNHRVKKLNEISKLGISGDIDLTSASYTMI
Chain of human Gal-1 (hGal-1) (P09382 2-135 limits assumed): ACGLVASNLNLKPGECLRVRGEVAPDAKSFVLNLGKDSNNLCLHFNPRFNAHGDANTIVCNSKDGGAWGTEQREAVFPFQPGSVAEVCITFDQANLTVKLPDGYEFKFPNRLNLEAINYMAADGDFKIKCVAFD

## CC(=O)O[C@@H]1[C@@H](n2cc(-c3cc(F)c(Cl)c(F)c3)nn2)[C@@H](O)[C@@H](CO)O[C@H]1C(=O)N(Cc1ccccc1C(F)(F)F)[C@H]1CCCC[C@@H]1O [Example 68, (2R,3R,4S,5R,6R)-4-(4-(4-chloro-3,5-difluorophenyl)-1H-1,2,3-triazol-1-yl)-5-hydroxy-2-(((1S,2S)-2-hydroxycyclohexyl)(2-(trifluoromethyl)benzyl)carbamoyl)-6-(hydroxymethyl)tetrahydro-2H-pyran-3-yl acetate]
Human Gal-3 (hGal-3)
  IC50: 44 nM
Human Gal-1 (hGal-1)
  IC50: 1170 nM

## O=C([C@@H]1O[C@H](CO)[C@H](O)[C@H](n2cc(-c3cc(F)c(Br)c(F)c3)nn2)[C@H]1O)N(Cc1ccccc1C(F)(F)F)[C@H]1CCCC[C@@H]1O [Example 69, (2R,3R,4S,5R,6R)-4-(4-(4-bromo-3,5-difluorophenyl)-1H-1,2,3-triazol-1-yl)-3,5-dihydroxy-N-((1S,2S)-2-hydroxycyclohexyl)-6-(hydroxymethyl)-N-(2-(trifluoromethyl)benzyl)tetrahydro-2H-pyran-2-carboxamide]
Human Gal-3 (hGal-3)
  IC50: 84 nM
Human Gal-1 (hGal-1)
  IC50: 2570 nM

## O=C([C@@H]1O[C@H](CO)[C@H](O)[C@H](n2cc(-c3ccc(Br)c(F)c3)nn2)[C@H]1O)N(Cc1ccccc1C(F)(F)F)[C@H]1CCCC[C@@H]1O [Example 70, (2R,3R,4S,5R,6R)-4-(4-(4-bromo-3-fluorophenyl)-1H-1,2,3-triazol-1-yl)-3,5-dihydroxy-N-((1S,2S)-2-hydroxycyclohexyl)-6-(hydroxymethyl)-N-(2-(trifluoromethyl)benzyl)tetrahydro-2H-pyran-2-carboxamide]
Human Gal-3 (hGal-3)
  IC50: 90 nM
Human Gal-1 (hGal-1)
  IC50: 615 nM

## O=C([C@@H]1O[C@H](CO)[C@H](O)[C@H](n2cc(-c3nc(Cl)cs3)nn2)[C@H]1O)N(Cc1ccccc1C(F)(F)F)[C@H]1CCCC[C@@H]1O [Example 71, (2R,3R,4S,5R,6R)-4-(4-(4-chlorothiazol-2-yl)-1H-1,2,3-triazol-1-yl)-3,5-dihydroxy-N-((1S,2S)-2-hydroxycyclohexyl)-6-(hydroxymethyl)-N-(2-(trifluoromethyl)benzyl)tetrahydro-2H-pyran-2-carboxamide]
Human Gal-3 (hGal-3)
  IC50: 143 nM
Human Gal-1 (hGal-1)
  IC50: 1310 nM

## COc1cccc(N(C(=O)[C@@H]2O[C@H](CO)[C@H](O)[C@H](n3cc(-c4cccc(F)c4)nn3)[C@H]2OC)[C@H]2CCCC[C@@H]2O)c1 [Example 73, (2R,3R,4S,5R,6R)-4-(4-(3-fluorophenyl)-1H-1,2,3-triazol-1-yl)-5-hydroxy-N-((1S,2S)-2-hydroxycyclohexyl)-6-(hydroxymethyl)-3-methoxy-N-(3-methoxyphenyl)tetrahydro-2H-pyran-2-carboxamide]
Human Gal-3 (hGal-3)
  IC50: 69 nM
Human Gal-1 (hGal-1)
  IC50: 1540 nM

## CO[C@@H]1[C@@H](n2cc(-c3cccc(F)c3)nn2)[C@@H](O)[C@@H](CO)O[C@H]1C(=O)N(c1cc(Cl)cc(C#N)c1)[C@H]1CCCC[C@@H]1O [Example 74]
Human Gal-3 (hGal-3)
  IC50: 44 nM
Human Gal-1 (hGal-1)
  IC50: 161 nM

## CO[C@@H]1[C@@H](n2cc(-c3cccc(F)c3C)nn2)[C@@H](O)[C@@H](CO)O[C@H]1C(=O)N(c1cc(Cl)cc(C#N)c1)[C@H]1CCCC[C@@H]1O [Example 75, (2R,3R,4S,5R,6R)-N-(3-chloro-5-cyanophenyl)-4-(4-(3-fluoro-2-methylphenyl)-1H-1,2,3-triazol-1-yl)-5-hydroxy-N-((1S,2S)-2-hydroxycyclohexyl)-6-(hydroxymethyl)-3-methoxytetrahydro-2H-pyran-2-carboxamide]
Human Gal-3 (hGal-3)
  IC50: 50 nM
Human Gal-1 (hGal-1)
  IC50: 259 nM

## COc1ccc(F)cc1-c1cn([C@H]2[C@@H](O)[C@@H](CO)O[C@@H](C(=O)N(c3cc(Cl)cc(C#N)c3)[C@H]3CCCC[C@@H]3O)[C@@H]2OC)nn1 [Example 76, (2R,3R,4S,5R,6R)-N-(3-chloro-5-cyanophenyl)-4-(4-(5-fluoro-2-methoxyphenyl)-1H-1,2,3-triazol-1-yl)-5-hydroxy-N-((1S,2S)-2-hydroxycyclohexyl)-6-(hydroxymethyl)-3-methoxytetrahydro-2H-pyran-2-carboxamide]
Human Gal-3 (hGal-3)
  IC50: 42 nM
Human Gal-1 (hGal-1)
  IC50: 901 nM

## COc1cccc(N(C(=O)[C@@H]2O[C@H](CO)[C@H](O)[C@H](n3cc(-c4cc(F)cc(F)c4)nn3)[C@H]2OC)[C@H]2CCCC[C@@H]2O)c1 [Example 79]
Human Gal-3 (hGal-3)
  IC50: 62 nM
Human Gal-1 (hGal-1)
  IC50: 2110 nM

## CO[C@@H]1[C@@H](n2cc(-c3cc(F)cc(F)c3)nn2)[C@@H](O)[C@@H](CO)O[C@H]1C(=O)N(c1cc(Cl)cc(C#N)c1)[C@H]1CCCC[C@@H]1O [Example 80, (2R,3R,4S,5R,6R)-N-(3-chloro-5-cyanophenyl)-4-(4-(3,5-difluorophenyl)-1H-1,2,3-triazol-1-yl)-5-hydroxy-N-((1S,2S)-2-hydroxycyclohexyl)-6-(hydroxymethyl)-3-methoxytetrahydro-2H-pyran-2-carboxamide]
Human Gal-3 (hGal-3)
  IC50: 25 nM
Human Gal-1 (hGal-1)
  IC50: 383 nM

## CO[C@@H]1[C@@H](n2cc(-c3cc(F)cc(F)c3)nn2)[C@@H](O)[C@@H](CO)O[C@H]1C(=O)N(c1cc(C)cc(C#N)c1)[C@H]1CCCC[C@@H]1O [Example 81, (2R,3R,4S,5R,6R)-N-(3-cyano-5-methylphenyl)-4-(4-(3,5-difluorophenyl)-1H-1,2,3-triazol-1-yl)-5-hydroxy-N-((1S,2S)-2-hydroxycyclohexyl)-6-(hydroxymethyl)-3-methoxytetrahydro-2H-pyran-2-carboxamide]
Human Gal-3 (hGal-3)
  IC50: 73 nM
Human Gal-1 (hGal-1)
  IC50: 1320 nM

## COc1cc(C#N)cc(N(C(=O)[C@@H]2O[C@H](CO)[C@H](O)[C@H](n3cc(-c4cc(F)cc(F)c4)nn3)[C@H]2OC)[C@H]2CCCC[C@@H]2O)c1 [Example 82, (2R,3R,4S,5R,6R)-N-(3-cyano-5-methoxyphenyl)-4-(4-(3,5-difluorophenyl)-1H-1,2,3-triazol-1-yl)-5-hydroxy-N-((1S,2S)-2-hydroxycyclohexyl)-6-(hydroxymethyl)-3-methoxytetrahydro-2H-pyran-2-carboxamide]
Human Gal-3 (hGal-3)
  IC50: 17 nM
Human Gal-1 (hGal-1)
  IC50: 1160 nM

## CO[C@@H]1[C@@H](n2cc(-c3cc(F)cc(F)c3)nn2)[C@@H](O)[C@@H](CO)O[C@H]1C(=O)N(c1cc(C)cc(Cl)c1)[C@H]1CCCC[C@@H]1O [Example 83, (2R,3R,4S,5R,6R)-N-(3-chloro-5-methylphenyl)-4-(4-(3,5-difluorophenyl)-1H-1,2,3-triazol-1-yl)-5-hydroxy-N-((1S,2S)-2-hydroxycyclohexyl)-6-(hydroxymethyl)-3-methoxytetrahydro-2H-pyran-2-carboxamide]
Human Gal-3 (hGal-3)
  IC50: 26 nM
Human Gal-1 (hGal-1)
  IC50: 2320 nM

## CO[C@@H]1[C@@H](n2cc(-c3cc(F)cc(F)c3)nn2)[C@@H](O)[C@@H](CO)O[C@H]1C(=O)N(c1cccc(Br)c1)[C@H]1CCCC[C@@H]1O [Example 84, (2R,3R,4S,5R,6R)-N-(3-bromophenyl)-4-(4-(3,5-difluorophenyl)-1H-1,2,3-triazol-1-yl)-5-hydroxy-N-((1S,2S)-2-hydroxycyclohexyl)-6-(hydroxymethyl)-3-methoxytetrahydro-2H-pyran-2-carboxamide]
Human Gal-3 (hGal-3)
  IC50: 25 nM
Human Gal-1 (hGal-1)
  IC50: 1900 nM

## CO[C@@H]1[C@@H](n2cc(-c3cc(F)cc(F)c3)nn2)[C@@H](O)[C@@H](CO)O[C@H]1C(=O)N(c1cccc(Cl)c1)[C@H]1CCCC[C@@H]1O [Example 85, (2R,3R,4S,5R,6R)-N-(3-chlorophenyl)-4-(4-(3,5-difluorophenyl)-1H-1,2,3-triazol-1-yl)-5-hydroxy-N-((1S,2S)-2-hydroxycyclohexyl)-6-(hydroxymethyl)-3-methoxytetrahydro-2H-pyran-2-carboxamide]
Human Gal-3 (hGal-3)
  IC50: 35 nM
Human Gal-1 (hGal-1)
  IC50: 1690 nM
